# Test results reported in ChEMBL document CHEMBL5241120, “Insights into the medicinal chemistry of heterocycles integrated with a pyrazolo[1,5-a]pyrimidine scaffold” (RSC Med Chem, 2022).
# How the values were obtained:
# [1] = target: T1, Androgen receptor (Homo sapiens, UniProt P10275); assay: Antagonist activity at androgen receptor (unknown origin)
# T1 sequence (P10275 whole entry): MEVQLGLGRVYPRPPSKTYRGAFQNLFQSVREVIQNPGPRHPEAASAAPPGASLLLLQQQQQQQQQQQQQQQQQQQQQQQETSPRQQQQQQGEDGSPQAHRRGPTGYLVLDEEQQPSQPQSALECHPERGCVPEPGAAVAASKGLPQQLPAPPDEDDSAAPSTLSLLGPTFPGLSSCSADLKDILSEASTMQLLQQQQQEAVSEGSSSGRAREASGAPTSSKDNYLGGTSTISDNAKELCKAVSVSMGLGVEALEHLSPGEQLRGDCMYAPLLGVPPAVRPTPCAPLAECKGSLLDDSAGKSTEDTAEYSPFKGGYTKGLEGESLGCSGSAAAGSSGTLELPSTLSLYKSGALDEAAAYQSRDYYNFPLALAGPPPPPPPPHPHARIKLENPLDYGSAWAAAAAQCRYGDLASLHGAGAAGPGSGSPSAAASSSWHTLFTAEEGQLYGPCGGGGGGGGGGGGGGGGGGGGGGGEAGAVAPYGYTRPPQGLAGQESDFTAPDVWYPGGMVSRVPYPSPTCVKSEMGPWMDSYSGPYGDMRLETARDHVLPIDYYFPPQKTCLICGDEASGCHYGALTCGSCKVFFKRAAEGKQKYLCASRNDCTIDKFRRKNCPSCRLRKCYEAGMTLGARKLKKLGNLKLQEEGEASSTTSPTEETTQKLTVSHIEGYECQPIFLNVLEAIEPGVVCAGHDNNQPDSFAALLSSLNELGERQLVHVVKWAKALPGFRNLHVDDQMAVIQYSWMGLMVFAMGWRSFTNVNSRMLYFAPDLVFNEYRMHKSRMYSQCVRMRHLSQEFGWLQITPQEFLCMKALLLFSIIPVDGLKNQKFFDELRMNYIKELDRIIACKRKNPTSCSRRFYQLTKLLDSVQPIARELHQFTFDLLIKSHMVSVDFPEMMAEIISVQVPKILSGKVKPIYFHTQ
# [2] = test system: Escherichia coli; assay: Antibacterial activity against Escherichia coli assessed as zone of inhibition; format: functional
# [3] = test system: Aspergillus niger; assay: Antifungal activity against Aspergillus niger assessed as zone of inhibition; format: functional
# [4] = test system: Salmonella typhimurium; assay: Antibacterial activity against Salmonella typhimurium assessed as zone of inhibition; format: functional, Salmonella enterica subsp. enterica serovar Typhimurium
# [5] = test system: MCF7; assay: Cytotoxicity against human MCF7 cells by MTT assay; format: functional, cell-based
# [6] = test system: HepG2; assay: Cytotoxicity against human HepG2 cells by MTT assay; format: functional, cell-based
# [7] = test system: MCF7; assay: Cytotoxicity against human MCF7 cells by SRB assay; format: functional, cell-based
# [8] = test system: Pseudomonas aeruginosa; assay: Antibacterial activity against Pseudomonas aeruginosa assessed as zone of inhibition; format: functional
# [9] = Inhibition of Hepatitis C virus NS3 protease; format: functional, Hepacivirus hominis
# [10] = test system: CHO-K1; assay: Cytotoxicity against CHO-K1 cells by MTT assay; format: toxicity, cell-based, Cricetulus griseus; parameters: concentration or dose not given beside the values; conditions: chinese hamster
# [11] = test system: Staphylococcus aureus; assay: Antibacterial activity against Staphylococcus aureus assessed as zone of inhibition; format: functional
# [12] = test system: HEK293; assay: Cytotoxicity against HEK293 cells; format: functional, Homo sapiens
# [13] = test system: HCT-116; assay: Cytotoxicity against human HCT-116 cells; format: functional
# [14] = test system: Escherichia coli; assay: Antibacterial activity against Escherichia coli assessed as zone of inhibition at 5 mg/ml; format: functional; conditions: read-out: IZ
# [15] = test system: Bacillus subtilis; assay: Antibacterial activity against Bacillus subtilis; format: functional
# [16] = test system: Staphylococcus aureus; assay: Antibacterial activity against Staphylococcus aureus; format: functional
# [17] = test system: Bacillus subtilis; assay: Antibacterial activity against Bacillus subtilis assessed as zone of inhibition; format: functional
# [18] = test system: Aspergillus niger; assay: Antifungal activity against Aspergillus niger; format: functional
# [19] = test system: Pseudomonas aeruginosa; assay: Antibacterial activity against Pseudomonas aeruginosa; format: functional
# [20] = test system: Escherichia coli; assay: Antibacterial activity against Escherichia coli; format: functional
# [21] = test system: A549; assay: Cytotoxicity against human A549 cells by MTT assay; format: functional, cell-based
# [22] = test system: SiHa; assay: Cytotoxicity against human SiHa cells by MTT assay; format: functional, cell-based
# [23] = test system: Rattus norvegicus; assay: Analgesic activity in Sprague-Dawley rat at 15 mg/kg after 2 hrs by hot plate test; format: functional
# [24] = target: T2, liver carboxylesterase (CES) (Sus scrofa, UniProt Q29550); assay: Inhibition of pig liver CES at 20 uM relative to control; format: tissue-based
# T2 sequence (Q29550 whole entry): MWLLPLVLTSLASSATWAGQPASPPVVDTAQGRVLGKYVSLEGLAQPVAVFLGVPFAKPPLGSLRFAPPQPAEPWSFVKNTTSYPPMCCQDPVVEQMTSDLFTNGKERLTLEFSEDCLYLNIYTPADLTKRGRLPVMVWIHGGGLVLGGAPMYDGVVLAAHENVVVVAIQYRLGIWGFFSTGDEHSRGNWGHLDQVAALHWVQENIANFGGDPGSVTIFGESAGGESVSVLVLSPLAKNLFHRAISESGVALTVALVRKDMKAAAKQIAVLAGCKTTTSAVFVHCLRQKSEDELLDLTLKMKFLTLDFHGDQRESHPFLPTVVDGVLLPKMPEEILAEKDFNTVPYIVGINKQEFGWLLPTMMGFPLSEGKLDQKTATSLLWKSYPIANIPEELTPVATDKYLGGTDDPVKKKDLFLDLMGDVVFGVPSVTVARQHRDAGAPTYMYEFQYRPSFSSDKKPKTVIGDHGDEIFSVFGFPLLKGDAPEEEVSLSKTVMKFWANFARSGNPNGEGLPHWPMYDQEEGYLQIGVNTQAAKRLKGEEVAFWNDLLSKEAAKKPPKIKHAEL
# [25] = Antioxidant activity assessed as ABTS radical scavenging activity; format: functional
# [26] = test system: Aspergillus clavatus; assay: Antifungal activity against Aspergillus clavatus; format: functional
structure (smiles),measurement,setting,value
O=C(O)c1nn2c(c1Cl)NC(c1ccccc1)CC2C(F)(F)F (stereo not given),IC50,[1],487 µM
Nc1nn2c(-c3ccc(S(=O)(=O)c4ccccc4)cc3)ccnc2c1/N=N/c1ccccc1[N+](=O)[O-],inhibition zone (IZ),[2],25.5 mm
same,inhibition zone (IZ),[3],26.3 mm
same,inhibition zone (IZ),[4],26.6 mm
COc1ccc(-c2ccnc3c(C(N)=O)c(Nc4ccccc4)nn23)cc1,IC50,[5],63.4 µM
same,IC50,[6],79.8 µM
same,IC50,[7],63.1 µM
same,inhibition zone (IZ),[8],9 mm
N#C/C(=C/c1ccc(Cl)cc1)c1nn2c(-c3cccs3)cc(C(F)(F)F)nc2c1C#N,IC50,[9],7.33 µg/mL
O=C(C1=CN=C2CC(O)=NN2C1P(=O)(OCCCl)OCCCl)c1ccccc1O (stereo not given),IC50,[7],39.7 µg/mL
Cc1c(NC(=O)c2cnn3c(N)c(-c4ccccc4)cnc23)c(=O)n(-c2ccccc2)n1C,Activity,[10],45.75%
CC/C(=C(\c1ccccc1)c1ccc(OCCN(C)C)cc1)c1ccccc1 [TAMOXIFEN],IC50,[7],8.5 µg/mL
Nc1nn2c(-c3ccc(S(=O)(=O)c4ccccc4)cc3)ccnc2c1/N=N/c1cccc(Cl)c1,inhibition zone (IZ),[3],25.1 mm
same,inhibition zone (IZ),[11],23.4 mm
same,inhibition zone (IZ),[4],26.3 mm
Clc1ccc(-c2cc3nccc(-c4ccc(Cl)cc4)n3n2)cc1,Activity,[12],44.2%
COc1ccc(-c2cc3nccc(-c4ccccc4)n3n2)cc1,Activity,[13],26%
Nc1nc2c(/N=N/c3ccc(F)cc3)c(N)nn2c(N)c1/N=N/c1ccc(F)cc1,zone of inhibition at 5000 µg/mL,[14],10 mm
COc1ccc(-c2ccnc3cc(-c4ccccc4)nn23)cc1,Activity,[12],48%
COc1ccc(-c2ccnc3cc(-c4ccc(Cl)cc4)nn23)cc1,Activity,[13],37%
COc1ccc(C2CC(C(F)(F)F)n3nc(-c4ccc(C(=O)O)cc4)cc3N2)cc1OC (stereo not given),IC50,[1],23.4 µM
NC(=O)c1c(Nc2ccccc2)nn2c(-c3ccccc3)ccnc12,inhibition zone (IZ),[2],7 mm
same,MIC,[15],3.9 µg/mL
same,inhibition zone (IZ),[11],10 mm
same,MIC,[16],7.81 µg/mL
same,inhibition zone (IZ),[17],12 mm
same,inhibition zone (IZ),[8],9 mm
same,MIC,[18],15.6 µg/mL
same,MIC,[19],7.81 µg/mL
same,MIC,[20],15.6 µg/mL
COc1ccc(-c2cc(-c3nn4cc(-c5ccncc5)cnc4c3S(=O)(=O)c3cc([N+](=O)[O-])c(OC)c([N+](=O)[O-])c3)on2)cc1,IC50,[21],0.054 µM
same,IC50,[22],0.08 µM
CCOP(=O)(OCC)C1C(C(=O)c2ccccc2O)=CN=C2CC(O)=NN21 (stereo not given),IC50,[7],21.9 µg/mL
Cc1ccc(N/N=C2\C(=O)n3nc(-c4ccccc4)cc3N=C2C(F)(F)F)cc1,Activity,[23],47.4%
same,inhibition at 20 µM,[24],2.91%
same,Activity,[25],0.19 µM
Cc1ccc(-n2cnc3c(cnn3-c3cc(C)nc4c(C#N)cnn34)c2=O)cc1,inhibition zone (IZ),[2],12.2 mm
same,inhibition zone (IZ),[17],14 mm
same,MIC,[18],10 µg/mL
same,MIC,[26],10 µg/mL
